#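 The compound was tested at five concentrations on cells cultured in 96-well plates, with a 48-hour exposure period. Abbreviation: GI50, concentration required for 50% inhibition of growth. The concentration for full growth arrest is given as TGI.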
# Legend:
# Experiment in all cases: NCI-60 cell line screen, 48 h
# 786-0 renal = tested on: 786-0 renal
# A498 renal = tested on: A498 renal
# A549 NSCLC = tested on: A549 NSCLC
# ACHN renal = tested on: ACHN renal
# CAKI-1 renal = tested on: CAKI-1 renal
# CCRF-CEM leukemia = tested on: CCRF-CEM leukemia
# COLO 205 colon = tested on: COLO 205 colon
# DLD-1 colon = tested on: DLD-1 colon
# DMS 273 small cell lung = tested on: DMS 273 small cell lung
# EKVX NSCLC = tested on: EKVX NSCLC
# HCC-2998 colon = tested on: HCC-2998 colon
# HCT-116 colon = tested on: HCT-116 colon
# HCT-15 colon = tested on: HCT-15 colon
# HL-60(TB) leukemia = tested on: HL-60(TB) leukemia
# HOP-18 NSCLC = tested on: HOP-18 NSCLC
# HOP-62 NSCLC = tested on: HOP-62 NSCLC
# HOP-92 NSCLC = tested on: HOP-92 NSCLC
# HT29 colon = tested on: HT29 colon
# IGROV1 ovarian = tested on: IGROV1 ovarian
# K-562 leukemia = tested on: K-562 leukemia
# KM12 colon = tested on: KM12 colon
# KM20L2 colon = tested on: KM20L2 colon
# LOX IMVI melanoma = tested on: LOX IMVI melanoma
# LXFL 529 NSCLC = tested on: LXFL 529 NSCLC
# M14 melanoma = tested on: M14 melanoma
# M19-MEL melanoma = tested on: M19-MEL melanoma
# MALME-3M melanoma = tested on: MALME-3M melanoma
# MOLT-4 leukemia = tested on: MOLT-4 leukemia
# NCI-H226 lung = tested on: NCI-H226 lung
# NCI-H23 lung = tested on: NCI-H23 lung
# NCI-H460 lung = tested on: NCI-H460 lung
# NCI-H522 lung = tested on: NCI-H522 lung
# OVCAR-3 ovarian = tested on: OVCAR-3 ovarian
# OVCAR-4 ovarian = tested on: OVCAR-4 ovarian
# OVCAR-5 ovarian = tested on: OVCAR-5 ovarian
# OVCAR-8 ovarian = tested on: OVCAR-8 ovarian
# RPMI-8226 leukemia = tested on: RPMI-8226 leukemia
# RXF 393 renal = tested on: RXF 393 renal
# RXF-631 renal = tested on: RXF-631 renal
# SF-268 CNS = tested on: SF-268 CNS
# SF-295 CNS = tested on: SF-295 CNS
# SF-539 CNS = tested on: SF-539 CNS
# SK-MEL-2 melanoma = tested on: SK-MEL-2 melanoma
# SK-MEL-28 melanoma = tested on: SK-MEL-28 melanoma
# SK-MEL-5 melanoma = tested on: SK-MEL-5 melanoma
# SK-OV-3 ovarian = tested on: SK-OV-3 ovarian
# SN12C renal = tested on: SN12C renal
# SNB-19 CNS = tested on: SNB-19 CNS
# SNB-75 CNS = tested on: SNB-75 CNS
# SNB-78 CNS = tested on: SNB-78 CNS
# SR leukemia = tested on: SR leukemia
# SW-620 colon = tested on: SW-620 colon
# TK-10 renal = tested on: TK-10 renal
# U251 CNS = tested on: U251 CNS
# UACC-257 melanoma = tested on: UACC-257 melanoma
# UACC-62 melanoma = tested on: UACC-62 melanoma
# UO-31 renal = tested on: UO-31 renal
# XF 498 CNS = tested on: XF 498 CNS
smiles,measurement,setting,value
CC[C@@]1(O)C(=O)OCc2c1cc1n(c2=O)Cc2cc3c([N+](=O)[O-])c(OC)ccc3nc2-1,GI50,786-0 renal,< 0.0115 µM
same,TGI,786-0 renal,0.0672 µM
same,GI50,A498 renal,0.184 µM
same,TGI,A498 renal,0.855 µM
same,GI50,A549 NSCLC,0.0343 µM
same,TGI,A549 NSCLC,2.61 µM
same,GI50,ACHN renal,< 0.01 µM
same,TGI,ACHN renal,0.0648 µM
same,GI50,CAKI-1 renal,0.0172 µM
same,TGI,CAKI-1 renal,0.582 µM
same,GI50,CCRF-CEM leukemia,< 0.01 µM
same,TGI,CCRF-CEM leukemia,0.0349 µM
same,GI50,COLO 205 colon,0.529 µM
same,TGI,COLO 205 colon,2.64 µM
same,GI50,DLD-1 colon,1.54 µM
same,TGI,DLD-1 colon,> 100 µM
same,GI50,DMS 273 small cell lung,< 0.01 µM
same,TGI,DMS 273 small cell lung,0.377 µM
same,GI50,EKVX NSCLC,3.03 µM
same,TGI,EKVX NSCLC,> 77.5 µM
same,GI50,HCC-2998 colon,0.359 µM
same,TGI,HCC-2998 colon,2.14 µM
same,GI50,HCT-116 colon,0.121 µM
same,TGI,HCT-116 colon,1.5 µM
same,GI50,HCT-15 colon,0.386 µM
same,TGI,HCT-15 colon,3.71 µM
same,GI50,HL-60(TB) leukemia,0.0236 µM
same,TGI,HL-60(TB) leukemia,0.196 µM
same,GI50,HOP-18 NSCLC,0.0816 µM
same,TGI,HOP-18 NSCLC,1.98 µM
same,GI50,HOP-62 NSCLC,< 0.01 µM
same,GI50,HOP-92 NSCLC,0.375 µM
same,TGI,HOP-92 NSCLC,2.94 µM
same,GI50,HT29 colon,0.224 µM
same,TGI,HT29 colon,> 100 µM
same,GI50,IGROV1 ovarian,0.272 µM
same,TGI,IGROV1 ovarian,2.32 µM
same,GI50,K-562 leukemia,0.168 µM
same,TGI,K-562 leukemia,> 20.4 µM
same,GI50,KM12 colon,0.514 µM
same,TGI,KM12 colon,6.12 µM
same,GI50,KM20L2 colon,0.262 µM
same,TGI,KM20L2 colon,5.95 µM
same,GI50,LOX IMVI melanoma,0.0194 µM
same,TGI,LOX IMVI melanoma,0.183 µM
same,GI50,LXFL 529 NSCLC,1.43 µM
same,TGI,LXFL 529 NSCLC,8.42 µM
same,GI50,M14 melanoma,0.0445 µM
same,TGI,M14 melanoma,0.635 µM
same,TGI,M19-MEL melanoma,1.6 µM
same,GI50,MALME-3M melanoma,0.374 µM
same,TGI,MALME-3M melanoma,3.09 µM
same,GI50,MOLT-4 leukemia,< 0.01 µM
same,TGI,MOLT-4 leukemia,0.0835 µM
same,GI50,NCI-H226 lung,0.274 µM
same,GI50,NCI-H23 lung,0.0155 µM
same,TGI,NCI-H23 lung,0.175 µM
same,GI50,NCI-H460 lung,< 0.01 µM
same,TGI,NCI-H460 lung,0.118 µM
same,GI50,NCI-H522 lung,0.0714 µM
same,TGI,NCI-H522 lung,2.16 µM
same,GI50,OVCAR-3 ovarian,0.424 µM
same,TGI,OVCAR-3 ovarian,1.34 µM
same,GI50,OVCAR-4 ovarian,0.574 µM
same,TGI,OVCAR-4 ovarian,3.02 µM
same,GI50,OVCAR-5 ovarian,0.0649 µM
same,TGI,OVCAR-5 ovarian,0.629 µM
same,GI50,OVCAR-8 ovarian,0.103 µM
same,TGI,OVCAR-8 ovarian,19 µM
same,GI50,RPMI-8226 leukemia,1.38 µM
same,TGI,RPMI-8226 leukemia,14.5 µM
same,GI50,RXF 393 renal,0.12 µM
same,TGI,RXF 393 renal,0.831 µM
same,GI50,RXF-631 renal,0.311 µM
same,TGI,RXF-631 renal,4.58 µM
same,GI50,SF-268 CNS,0.0177 µM
same,TGI,SF-268 CNS,> 31.8 µM
same,GI50,SF-295 CNS,0.0101 µM
same,TGI,SF-295 CNS,0.263 µM
same,GI50,SF-539 CNS,< 0.0122 µM
same,TGI,SF-539 CNS,0.121 µM
same,GI50,SK-MEL-2 melanoma,0.968 µM
same,TGI,SK-MEL-2 melanoma,2.61 µM
same,GI50,SK-MEL-28 melanoma,0.544 µM
same,TGI,SK-MEL-28 melanoma,8.16 µM
same,GI50,SK-MEL-5 melanoma,0.119 µM
same,TGI,SK-MEL-5 melanoma,0.285 µM
same,GI50,SK-OV-3 ovarian,0.0481 µM
same,TGI,SK-OV-3 ovarian,2.49 µM
same,GI50,SN12C renal,< 0.01 µM
same,TGI,SN12C renal,0.433 µM
same,GI50,SNB-19 CNS,0.0594 µM
same,TGI,SNB-19 CNS,22.2 µM
same,GI50,SNB-75 CNS,0.035 µM
same,TGI,SNB-75 CNS,0.405 µM
same,GI50,SNB-78 CNS,2.2 µM
same,TGI,SNB-78 CNS,> 65.3 µM
same,GI50,SR leukemia,< 0.01 µM
same,GI50,SW-620 colon,0.171 µM
same,TGI,SW-620 colon,2.55 µM
same,GI50,TK-10 renal,3.58 µM
same,TGI,TK-10 renal,55.6 µM
same,GI50,U251 CNS,< 0.01 µM
same,TGI,U251 CNS,0.23 µM
same,GI50,UACC-257 melanoma,0.293 µM
same,TGI,UACC-257 melanoma,2.23 µM
same,GI50,UACC-62 melanoma,< 0.01 µM
same,TGI,UACC-62 melanoma,0.134 µM
same,GI50,UO-31 renal,0.0845 µM
same,TGI,UO-31 renal,0.595 µM
same,GI50,XF 498 CNS,0.508 µM
same,TGI,XF 498 CNS,5.07 µM
COC(=O)c1sc(=O)n(-c2ccccc2)c1SCc1ccccc1,TGI,786-0 renal,> 100 µM
same,TGI,A549 NSCLC,> 100 µM
same,TGI,ACHN renal,> 100 µM
same,TGI,CCRF-CEM leukemia,> 100 µM
same,TGI,COLO 205 colon,> 100 µM
same,TGI,DLD-1 colon,> 100 µM
same,TGI,DMS 273 small cell lung,> 100 µM
same,TGI,EKVX NSCLC,> 100 µM
same,TGI,HCC-2998 colon,> 100 µM
same,TGI,HCT-116 colon,> 100 µM
same,TGI,HCT-15 colon,> 100 µM
same,TGI,HL-60(TB) leukemia,> 100 µM
same,TGI,HOP-18 NSCLC,> 100 µM
same,TGI,HOP-62 NSCLC,> 100 µM
same,TGI,HOP-92 NSCLC,> 100 µM
same,TGI,HT29 colon,> 100 µM
same,TGI,IGROV1 ovarian,> 100 µM
same,TGI,K-562 leukemia,> 100 µM
same,TGI,KM12 colon,> 100 µM
same,TGI,KM20L2 colon,> 100 µM
same,TGI,LOX IMVI melanoma,> 100 µM
same,TGI,LXFL 529 NSCLC,> 100 µM
same,TGI,M14 melanoma,> 100 µM
same,TGI,M19-MEL melanoma,> 100 µM
same,TGI,MALME-3M melanoma,> 100 µM
same,TGI,MOLT-4 leukemia,> 100 µM
same,TGI,NCI-H226 lung,> 100 µM
same,TGI,NCI-H23 lung,> 100 µM
same,TGI,NCI-H460 lung,> 100 µM
same,TGI,NCI-H522 lung,> 100 µM
same,TGI,OVCAR-3 ovarian,> 100 µM
same,TGI,OVCAR-4 ovarian,> 100 µM
same,TGI,OVCAR-5 ovarian,> 100 µM
same,TGI,OVCAR-8 ovarian,> 100 µM
same,TGI,RPMI-8226 leukemia,> 100 µM
same,TGI,RXF 393 renal,> 100 µM
same,TGI,RXF-631 renal,> 100 µM
same,TGI,SF-295 CNS,> 100 µM
same,TGI,SF-539 CNS,> 100 µM
same,TGI,SK-MEL-2 melanoma,> 100 µM
same,TGI,SK-MEL-28 melanoma,> 100 µM
same,TGI,SK-MEL-5 melanoma,> 100 µM
same,TGI,SK-OV-3 ovarian,> 100 µM
same,TGI,SN12C renal,> 100 µM
same,TGI,SNB-19 CNS,> 100 µM
same,TGI,SNB-75 CNS,> 100 µM
same,TGI,SR leukemia,> 100 µM
same,TGI,SW-620 colon,> 100 µM
same,TGI,TK-10 renal,> 100 µM
same,TGI,U251 CNS,> 100 µM
same,TGI,UACC-257 melanoma,> 100 µM
same,TGI,UACC-62 melanoma,> 100 µM
same,TGI,UO-31 renal,> 100 µM
same,TGI,XF 498 CNS,> 100 µM
